Experimental data as given in patent US9512120B2, “Microbicidally active imidazopyridine derivatives” (Syngenta Participations AG, priority 2013, dated 2016).

Tests used:
[1] = system: Mycosphaerella graminicola (Septoria tritici); assay: Mycosphaerella graminicola (Septoria tritici) / liquid culture (Septoria blotch); format: cell-based; details: Zymoseptoria tritici, PDB, 24° C., 4-5 days after application, read-out: control of Mycosphaerella graminicola (inhibition of growth, photometric)
Procedure, shortened: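 Growth inhibition was read photometrically after 4–5 days at 24 °C. The test compound was applied at 200 ppm from DMSO solution, then PDB broth seeded with conidia taken straight from cryogenic storage was added.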

[2] = system: Blumeria graminis f. Sp. Tritici (Erysiphe graminis f. Sp. Tritici); assay: Blumeria graminis f. sp. tritici / wheat / leaf disc preventative (powdery mildew on wheat); format: in vivo; details: foliar, wheat leaf segments cv. Kanzler, inoculated 1 day after application, assessed 6-8 days after application, read-out: control of Blumeria graminis (percent disease control compared to untreated)
Procedure, shortened: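 Wheat leaf segments (cv. Kanzler) on agar sprayed with formulated compound at 200 ppm, inoculated with powdery mildew 1 day later. Held at 20 °C, 60% RH, 24 h dark then 12 h/12 h light; percent disease control versus untreated scored 6-8 days after application.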

[3] = system: Thanatephorus cucumeris (Rhizoctonia solani); assay: Thanatephorus cucumeris (Rhizoctonia solani) / liquid culture (foot rot, damping-off); format: cell-based; details: PDB, 24° C., 3-4 days after application, read-out: control of Thanatephorus cucumeris (inhibition of growth, photometric)
Procedure, shortened: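 At 200 ppm, compounds in DMSO were combined with fresh liquid-culture mycelia in PDB and kept at 24° C; photometric measurement of growth inhibition after 3-4 days.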

[4] = system: Puccinia recondita f. sp. Tritici; assay: Puccinia recondita f. sp. tritici / wheat / leaf disc preventative (brown rust); format: in vivo; details: foliar, wheat leaf segments cv Kanzler, inoculated 1 day after application, assessed 7-9 days after application, read-out: control of Puccinia recondita f. sp. Tritici (percent disease control compared to untreated)
Procedure, shortened: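 Preventative test: percent disease control relative to untreated leaf segments was assessed 7-9 days post-application. Wheat (cv Kanzler) leaf discs were treated at 200 ppm and spore-inoculated 1 day afterwards. Discs were held at 19° C and 75% relative humidity under a 12/12 h light cycle.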

[5] = system: Fusarium graminearum, syn. Gibberella zeae; assay: whole plant or invertebrate; format: in vivo; details: in Triticum aestivum, 144 h, read-out: control of Gibberella zeae (preventative fungicidal activity)
Pyrenophora teres = Pyrenophora teres / barley / leaf disc preventative (net blotch); format: in vivo; details: foliar, barley leaf segments cv Hasso, inoculated two days after application, assessed 5-7 days after application, read-out: control of Pyrenophora teres (disease control compared to untreated)
Procedure, shortened: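 Preventative leaf-disc test: 200 ppm spray, then spore inoculation after two days on barley cv Hasso segments. Incubation 20 °C, 65% relative humidity, 12 h light/12 h dark; efficacy rated against untreated checks at 5-7 days post-application.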

[6] = system: Puccinia recondita f. sp. Tritici; assay: Puccinia recondita f. sp. tritici / wheat / leaf disc curative (brown rust); format: in vivo; details: foliar, wheat leaf segments cv Kanzler, applied 1 day after inoculation, assessed 6-8 days after application, read-out: control of Puccinia recondita f. sp. Tritici (percent disease control compared to untreated)
Description: Puccinia recondita f. Sp. Tritici/Wheat/Leaf Disc Curative (Brown Rust): Wheat leaf segments cv Kanzler were placed on agar in 24-well plates. The leaf segments were inoculated with a spore suspension of the fungus. The plates were stored in darkness at 19° C. and 75% relative humidity. The formulated test compound diluted in water was applied at an application rate of 200 ppm 1 day after inoculation. […] Tritici at 200 ppm when compared to untreated control leaf disks under the same conditions, which show extensive disease development: 2, 13, 16, 23, 30, 61, 75, 89, 103, 173, 174

Gaeumannomyces graminis = Gaeumannomyces graminis / liquid culture (take-all of cereals); format: cell-based; details: PDB, 24° C., 4-5 days after application, read-out: control of Gaeumannomyces graminis (inhibition of growth, photometric)
Procedure, shortened: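 Growth inhibition, measured by photometry 4-5 days post-application at 24 °C, of fungal mycelial fragments in PDB broth. Test compound applied as DMSO solution at 200 ppm.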

[7] = system: Botryotinia fuckeliana (Botrytis cinerea); assay: Botryotinia fuckeliana (Botrytis cinerea) / liquid culture (gray mould); format: cell-based; details: Vogels broth, 24° C., 3-4 days after application, read-out: control of Botryotinia fuckeliana (inhibition of growth, photometric)
Procedure, shortened: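 Test compound was applied at 200 ppm in DMSO, then Vogels nutrient broth containing cryo-stored B. cinerea conidia was added. Photometric growth-inhibition reading followed after 3-4 days at 24 °C.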

[8] = system: Phaeosphaeria nodorum (Septoria nodorum); assay: Phaeosphaeria nodorum (Septoria nodorum) / wheat / leaf disc preventative (glume blotch); format: in vivo; details: Parastagonospora nodorum, foliar, wheat leaf segments cv Kanzler, inoculated 2 days after application, assessed 5-7 days after application, read-out: control of Phaeosphaeria nodorum (percent disease control compared to untreated)
Procedure, shortened: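 Wheat leaf segments (cv Kanzler) on agar sprayed with compound at 200 ppm, inoculated with spores 2 days later. Incubated at 20° C., 75% relative humidity, 12/12 h light/dark; percent disease control versus untreated scored 5-7 days after application.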

Fusarium culmorum = assay: microbe, parasite or virus in culture; format: cell-based; details: read-out: control of Fusarium culmorum (inhibition of growth, photometric)
[9] = system: Monographella nivalis (Microdochium nivale); assay: Monographella nivalis (Microdochium nivale) / liquid culture (foot rot cereals); format: cell-based; details: PDB, 24° C., 4-5 days after application, read-out: control of Monographella nivalis (inhibition of growth, photometric)
Procedure, shortened: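 Cryostored conidia in potato dextrose broth were added to test compound dispensed from DMSO at 200 ppm. Plates were kept at 24° C, and growth inhibition was read photometrically 4-5 days after application.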

[10] = system: Glomerella lagenarium (Colletotrichum lagenarium); assay: Glomerella lagenarium (Colletotrichum lagenarium) / liquid culture (anthracnose); format: cell-based; details: Colletotrichum orbiculare, PDB, 24° C., 3-4 days after application, read-out: control of Glomerella lagenarium (inhibition of growth, photometric)
Procedure, shortened: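 Test compound, delivered in DMSO at an application rate of 200 ppm, was combined with spore-containing PDB. Photometric growth-inhibition measurement followed 3-4 days of incubation at 24° C.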

[11] = system: Mycosphaerella arachidis (Cercospora arachidicola); assay: Mycosphaerella arachidis (Cercospora arachidicola) / liquid culture (early leaf spot); format: cell-based; details: PDB, 24° C., 4-5 days after application, read-out: control of Mycosphaerella arachidis (inhibition of growth, photometric)
Procedure, shortened: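 Conidia suspended in potato dextrose broth and added to test compound from DMSO solution at 200 ppm. Incubated at 24 °C; growth inhibition read photometrically 4-5 days after application.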

Sclerotinia sclerotiorum = Sclerotinia sclerotiorum liquid culture (cottony rot / white mold); format: cell-based; details: PDB, 24° C., 3-4 days after application, read-out: control of Sclerotinia sclerotiorum (inhibition of growth, photometric)
Procedure, shortened: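 Mycelia fragments of Sclerotinia sclerotiorum in potato dextrose broth were added to compound in DMSO. Cultures incubated at 24° C; growth inhibition determined photometrically 3-4 days after application.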

Plasmopara viticola = Plasmopara viticola / grape / leaf disc preventative; format: in vivo; details: foliar, grape vine leaf disks, inoculated 1 day after application, assessed 6-8 days after application, read-out: control of Plasmopara viticola (percent disease control compared to untreated)
Pythium ultimum = Pythium ultimum / liquid culture (seedling damping off); format: cell-based; details: Globisporangium ultimum, potato dextrose broth, 24° C., 2-3 days after application, read-out: control of Pythium ultimum (inhibition of growth, photometric)
Procedure, shortened: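 Test compound in DMSO at 200 ppm was incubated with mycelia fragments and oospores in potato dextrose broth at 24 °C. Growth inhibition was read photometrically 2-3 days after application.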

Nc1ncnn1-c1nc2cnccc2n1C1CCCCC1 [Compound 2, 2-(1-cyclohexylimidazo[4,5-c]pyridin-2-yl)-1,2,4-triazol-3-amine]
≥ 80%: inhibition at 20 ppm [1] | pest or weed control at 200 ppm [2] | inhibition at 20 ppm [3] | pest or weed control at 200 ppm [4] | pest or weed control at 20 ppm [5] | pest or weed control at 200 ppm (Pyrenophora teres) | pest or weed control at 200 ppm [6] | inhibition at 20 ppm (Gaeumannomyces graminis) | inhibition at 20 ppm [7]

CCn1c(-n2ncnc2N)nc2cncc(-c3cnn(C)c3)c21 [Compound 61, 2-[1-ethyl-7-(1-methylpyrazol-4-yl)imidazo[4,5-c]pyridin-2-yl]-1,2,4-triazol-3-amine]
≥ 80%: inhibition at 20 ppm [1] | pest or weed control at 200 ppm [2] | pest or weed control at 200 ppm [8] | inhibition at 20 ppm [3] | pest or weed control at 200 ppm [4] | pest or weed control at 200 ppm (Pyrenophora teres) | pest or weed control at 200 ppm [6] | inhibition at 20 ppm [7]

CCn1c(-n2ncnc2N)nc2cncc(-c3ccc(Cl)cc3F)c21 [Compound 98, 2-[7-(4-chloro-2-fluorophenyl)-1-ethylimidazo[4,5-c]pyridin-2-yl]-1,2,4-triazol-3-amine]
≥ 80%: inhibition at 20 ppm [1] | inhibition at 20 ppm (Fusarium culmorum) | pest or weed control at 200 ppm [8] | inhibition at 20 ppm [3] | inhibition at 20 ppm [9] | pest or weed control at 200 ppm [4] | inhibition at 20 ppm [10] | pest or weed control at 20 ppm [5] | inhibition at 20 ppm [11] | pest or weed control at 200 ppm (Pyrenophora teres) | inhibition at 20 ppm (Gaeumannomyces graminis) | inhibition at 20 ppm (Sclerotinia sclerotiorum) | inhibition at 20 ppm [7]

CCn1c(-n2ncnc2N)nc2cncc(-c3cccnc3Cl)c21 [Compound 103, 2-[7-(2-chloropyridin-3-yl)-1-ethylimidazo[4,5-c]pyridin-2-yl]-1,2,4-triazol-3-amine]
≥ 80%: inhibition at 20 ppm [1] | pest or weed control at 200 ppm [2] | pest or weed control at 200 ppm [8] | inhibition at 20 ppm [3] | inhibition at 20 ppm [9] | pest or weed control at 200 ppm [4] | inhibition at 20 ppm [10] | pest or weed control at 200 ppm (Pyrenophora teres) | pest or weed control at 200 ppm [6] | inhibition at 20 ppm (Gaeumannomyces graminis) | inhibition at 20 ppm [7]

CCn1c(-n2ncnc2N)nc2cncc(/C(C)=N\OC/C=C/Cl)c21 [Compound 149]
≥ 80%: inhibition at 20 ppm [1] | inhibition at 20 ppm (Fusarium culmorum) | pest or weed control at 200 ppm [8] | inhibition at 20 ppm [3] | inhibition at 20 ppm [9] | pest or weed control at 200 ppm [4] | inhibition at 20 ppm [10] | pest or weed control at 20 ppm [5] | inhibition at 20 ppm [11] | pest or weed control at 200 ppm (Pyrenophora teres) | pest or weed control at 200 ppm (Plasmopara viticola) | inhibition at 20 ppm (Pythium ultimum) | inhibition at 20 ppm (Sclerotinia sclerotiorum) | inhibition at 20 ppm [7]
